Results: ChEMBL document CHEMBL2407029 (Bioorg Med Chem Lett, 2013)
Square brackets hold non-standard residues; d marks the D form. Peptide text beside a SMILES is read from it. Phe(4-I) = N[C@@H](Cc1ccc(I)cc1)C(=O)O

Experiments:
[1] = Displacement of [131I]-[D-Ala2,4'-I-Phe8]alpha-Neoendorphin from opioid receptor in CD-1 mouse brain after 90 mins by competitive binding assay; format: tissue-based
[2] = target: Kappa-type opioid receptor (Homo sapiens, UniProt P41145); test: Displacement of [125]IBNtxA from KOR-1 (unknown origin) transfected in CHO cells after 90 mins by competitive binding assay; format: cell-based
[3] = target: Delta-type opioid receptor (Homo sapiens, UniProt P41143); test: Displacement of [125]IBNtxA from DOR-1 (unknown origin) transfected in CHO cells after 90 mins by competitive binding assay; format: cell-based
Mus musculus = organism: Mus musculus; test: (§1) Binding affinity to opioid receptor in CD-1 mouse brain after 90 mins; conditions: tested as the 131I-labelled form
[4] = as §1; conditions: read-out: Kd(app)

Row | SMILES | Ki [1] [nM] | also measured
1 | CC[C@H](C)[C@H](NC(=O)[C@H](CCCNC(=N)N)NC(=O)[C@H](CCCNC(=N)N)NC(=O)[C@H](CC(C)C)NC(=O)[C@H](Cc1ccccc1)NC(=O)CNC(=O)CNC(=O)[C@@H](N)Cc1ccc(O)cc1)C(=O)N[C@@H](CCCNC(=N)N)C(=O)N1CCC[C@H]1C(=O)N[C@@H](CCCCN)C(=O)N[C@@H](CC(C)C)C(=O)N[C@@H](CCCCN)C(=O)N[C@@H](Cc1c[nH]c2ccccc12)C(=O)N[C@@H](CC(=O)O)C(=O)N[C@@H](CC(N)=O)C(=O)N[C@@H](CCC(N)=O)C(=O)O [DYNORPHIN A (1-17)] | 5.5 | 
2 | CC(C)C[C@H](NC(=O)[C@H](Cc1ccccc1)NC(=O)CNC(=O)CNC(=O)[C@@H](N)Cc1ccc(O)cc1)C(=O)N[C@@H](CCCNC(=N)N)C(=O)N[C@@H](CCCCN)C(=O)N[C@@H](Cc1ccc(O)cc1)C(=O)N1CCC[C@H]1C(=O)N[C@@H](CCCCN)C(=O)O (H-YGGFLRKYPK-OH) | 9.8 | Ki [2]: 2.4 nM; Ki [3]: 1.7 nM
3 | C[C@@H](NC(=O)[C@@H](N)Cc1ccc(O)cc1)C(=O)NCC(=O)N(C)[C@@H](Cc1ccccc1)C(=O)NCCO [DAMGO] | 1.4 | 
4 | CC(C)C[C@H](NC(=O)[C@H](Cc1ccccc1)NC(=O)CNC(=O)[C@@H](C)NC(=O)[C@@H](N)Cc1ccc(O)cc1)C(=O)N[C@@H](CCCNC(=N)N)C(=O)N[C@@H](CCCCN)C(=O)N[C@@H](Cc1ccc(I)cc1)C(=O)N1CCC[C@H]1C(=O)N[C@@H](CCCCN)C(=O)O (H-Y[dA]GFLRK[Phe(4-I)]PK-OH) |  | Bmax (Mus musculus): 465 fmol/mg
5 | CC(C)C[C@H](NC(=O)[C@H](Cc1ccccc1)NC(=O)CNC(=O)[C@@H](C)NC(=O)[C@@H](N)Cc1ccc(O)cc1)C(=O)N[C@@H](CCCNC(=N)N)C(=O)N[C@@H](CCCCN)C(=O)N[C@@H](Cc1ccc([131I])cc1)C(=O)N1CCC[C@H]1C(=O)N[C@@H](CCCCN)C(=O)O |  | Kd [4]: 11 nM
6 | CC(C)C[C@H](NC(=O)[C@H](Cc1ccccc1)NC(=O)CNC(=O)CNC(=O)[C@@H](N)Cc1ccc(O)cc1)C(=O)N[C@@H](CCCNC(=N)N)C(=O)N[C@@H](CCCNC(=N)N)C(=O)N[C@@H](CCC(N)=O)C(=O)N[C@@H](Cc1ccccc1)C(=O)N[C@@H](CCCCN)C(=O)N[C@H](C(=O)N[C@H](C(=O)N[C@H](C(=O)O)[C@@H](C)O)C(C)C)C(C)C [DYNORPHIN B] | 6.7 | 
